Experimental data: the supplement of paper PMC10307832

Key:
Test in all cases: relative viability (nuclei count vs DMSO), 5 days (fraction); higher = more cells survive
kb NB 142-70 + Alpelisib = compound: C1CSC2=C(C(=O)N1)SC3=C2C=C(C=C3)O [kb NB 142-70] + Cc1nc(NC(=O)N2CCC[C@H]2C(N)=O)sc1-c1ccnc(C(C)(C)C(F)(F)F)c1 [Alpelisib] (partner 2 µM)
How it was run: (§1)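 Medians of duplicate plates are given as relative viability. That measure is the nuclei count in treated wells divided by the count in vehicle wells. Counts were taken on 4× images of lung cancer cell lines in 1536-well plates, 5 days after pin-tool dosing the day after seeding with one drug alone or a fixed anchor-drug dose plus five library-drug doses (not always all listed) in √10 steps.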

[1] = compound: C1CSC2=C(C(=O)N1)SC3=C2C=C(C=C3)O [kb NB 142-70] + N=C(N)NC(=N)NCCc1ccccc1 [Phenformin] (partner 250 µM)
How it was run: as §1

[2] = compound: C1CSC2=C(C(=O)N1)SC3=C2C=C(C=C3)O [kb NB 142-70] + Nc1ncn([C@H]2C[C@H](O)[C@@H](CO)O2)c(=O)n1 [Decitabine] (partner 2 µM)
How it was run: as §1

[3] = compound: NCC(=O)Nc1ccc(-n2nc(C(F)(F)F)cc2-c2ccc3c(ccc4ccccc43)c2)cc1 + CS(=O)(=O)CCNCc1ccc(-c2ccc3ncnc(Nc4ccc(OCc5cccc(F)c5)c(Cl)c4)c3c2)o1 [Lapatinib] (partner 2 µM)
How it was run: as §1

[4] = compound: NCC(=O)Nc1ccc(-n2nc(C(F)(F)F)cc2-c2ccc3c(ccc4ccccc43)c2)cc1 + O=C(CCCCCCC(=O)Nc1ccccc1)NO [Vorinostat] (partner 1 µM)
How it was run: as §1

Cell Line | relative viability (kb NB 142-70 + Alpelisib; first compound 0.1 µM) | relative viability (kb NB 142-70 + Alpelisib; first compound 1 µM) | relative viability (kb NB 142-70 + Alpelisib; first compound 3.162 µM) | relative viability ([1]; first compound 0.1 µM) | relative viability ([1]; first compound 1 µM) | relative viability ([1]; first compound 3.162 µM) | relative viability ([2]; first compound 0.1 µM) | relative viability ([2]; first compound 1 µM) | relative viability ([2]; first compound 3.162 µM) | relative viability ([3]; first compound 0.02 µM) | relative viability ([3]; first compound 0.06325 µM) | relative viability ([3]; first compound 0.2 µM) | relative viability ([3]; first compound 0.6325 µM) | relative viability ([3]; first compound 2 µM) | relative viability ([4]; first compound 0.02 µM) | relative viability ([4]; first compound 0.06325 µM) | relative viability ([4]; first compound 0.2 µM) | relative viability ([4]; first compound 0.6325 µM) | relative viability ([4]; first compound 2 µM)
HCC-15 | 0.908 | 0.787 | 0.626 | 0.476 | 0.491 | 0.518 | 0.618 | 0.694 | 0.553 | 0.847 | 0.876 | 0.839 | 0.821 | 0.812 | 0.878 | 0.94 | 1.04 | 0.861 | 0.841
HCC-44 | 0.772 | 0.875 | 0.735 | 0.405 | 0.256 | 0.148 | 0.946 | 0.993 | 1.01 | 1.02 | 1.16 | 0.974 | 1.03 | 1.05 | 1.17 | 1.19 | 1.03 | 1.05 | 1.12
HCC-78 | 0.363 | 0.348 | 0.335 | 0.72 | 0.673 | 0.651 | 0.683 | 0.727 | 0.677 | 0.819 | 1.04 | 0.745 | 0.742 | 0.342 | 0.398 | 0.481 | 0.472 | 0.466 | 0.454
HCC-366 | 0.425 | 0.333 | 0.296 | 0.637 | 0.588 | 0.604 | 0.366 | 0.407 | 0.415 | 1.04 | 1.07 | 1.12 | 0.997 | 0.698 | 0.254 | 0.423 | 0.419 | 0.357 | 0.435
HCC-827 | 0.868 | 0.928 | 0.851 | 0.415 | 0.387 | 0.339 | 0.31 | 0.288 | 0.274 | 0.178 | 0.201 | 0.172 | 0.199 | 0.23 | 0.906 | 0.335 | 0.876 | 0.9 | 0.834
IA-LM | 0.795 | 0.759 | 0.756 |  |  |  |  |  |  | 0.802 | 0.823 | 0.757 | 0.85 | 0.717 | 0.989 | 1.08 | 0.981 | 0.908 | 0.896
LCLC-103H | 0.998 | 0.944 | 0.961 | 0.352 | 0.317 | 0.318 | 0.75 | 0.737 | 0.773 |  |  |  |  |  | 0.674 | 0.831 | 0.818 | 0.77 | 0.862
NCI-H441 | 0.92 | 0.62 | 0.484 | 0.881 | 0.894 | 0.633 | 0.259 | 0.213 | 0.162 |  |  |  |  |  | 1.02 | 0.705 | 0.987 | 0.72 | 0.866
NCI-H522 |  |  |  | 0.633 | 0.561 | 0.522 | 0.61 | 0.698 | 0.581 |  |  |  |  |  | 0.91 | 0.836 | 0.802 | 0.973 | 0.903
NCI-H1299 | 1.02 | 1.11 | 1.17 |  |  |  |  |  |  | 0.987 | 0.943 | 1.02 | 0.952 | 0.972 |  |  |  |  | 
NCI-H1563 | 0.963 | 0.967 | 0.932 | 0.656 | 0.688 | 0.624 |  |  |  | 0.841 | 0.998 | 0.758 | 0.945 | 0.909 |  |  |  |  | 
NCI-H1623 |  |  |  | 0.599 | 0.617 | 0.591 |  |  |  |  |  |  |  |  |  |  |  |  | 
NCI-H1648 |  |  |  |  |  |  | 0.452 | 0.435 | 0.493 |  |  |  |  |  | 0.416 | 0.423 | 0.762 | 0.408 | 0.536
NCI-H1650 |  |  |  | 0.457 | 0.525 | 0.324 | 0.492 | 0.408 | 0.442 | 0.812 | 0.797 | 0.472 | 0.801 | 0.929 | 0.71 | 0.676 | 0.556 | 0.692 | 0.559
NCI-H1703 | 0.391 | 0.362 | 0.444 |  |  |  |  |  |  | 1.03 | 1.09 | 1.41 | 0.964 | 1.04 |  |  |  |  | 
NCI-H1792 | 0.778 | 0.732 | 0.891 |  | 0.297 | 0.392 | 0.536 | 0.536 | 0.458 | 1 | 0.948 | 0.918 | 0.933 | 0.857 |  |  |  |  | 
NCI-H2228 | 0.7 | 0.729 | 0.494 | 0.263 | 0.317 | 0.178 |  |  |  | 1.1 | 1.21 | 1.14 | 0.935 | 0.804 | 0.727 | 0.599 | 0.685 | 0.723 | 0.663
NCI-H2342 |  |  |  | 0.615 | 0.619 | 0.502 | 0.66 | 0.694 | 0.748 |  |  |  |  |  | 0.871 | 0.817 | 0.663 | 0.864 | 0.743
SW 900 |  |  |  | 0.495 | 0.521 | 0.193 | 0.473 | 0.4 | 0.418 |  |  |  |  |  | 0.492 | 0.464 | 0.44 | 0.546 | 0.53
